Counter-ions that a name gives are not always drawn.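 Grown in 96-well plates, cells were treated for 48 hours with each compound at five concentrations. Insufficient inhibition: endpoint recorded as highest concentration tested. GI50 marks 50% less growth.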 Calls of active or inactive are those of the source. No stated cut-off is given here; in the data, active = GI50 up to about 1.1 µM and inactive = higher.
How the values were obtained:
Test in all cases: NCI anticancer screen, dose series, 48 h
MDA-MB-435 = test system: MDA-MB-435
TK-10 = test system: TK-10
OVCAR-5 = test system: OVCAR-5
LOX IMVI = test system: LOX IMVI
MCF7 = test system: MCF7
SF-539 = test system: SF-539
SK-MEL-5 = test system: SK-MEL-5
HOP-62 = test system: HOP-62
MOLT-4 = test system: MOLT-4
NCI-H522 = test system: NCI-H522
Malme-3M = test system: Malme-3M
NCI/ADR-RES = test system: NCI/ADR-RES
HCC 2998 = test system: HCC 2998
HCT-15 = test system: HCT-15
IGROV-1 = test system: IGROV-1
COLO 205 = test system: COLO 205
OVCAR-3 = test system: OVCAR-3
HCT-116 = test system: HCT-116
A549 = test system: A549
MDA-MB-231 = test system: MDA-MB-231

With `NCCCCNCCCN` [SPERMIDINE TRIHYDROCHLORIDE] the GI50 (MDA-MB-435) was 27.4 µM (inactive), the GI50 (TK-10) was > 100 µM (inactive) and the GI50 (OVCAR-5) was > 100 µM (inactive). For the same compound, the GI50 (LOX IMVI) was > 100 µM (inactive), the GI50 (MCF7) was 72.8 µM (inactive) and the GI50 (SF-539) was > 100 µM (inactive). The GI50 (SK-MEL-5) was > 100 µM (inactive), the GI50 (HOP-62) was > 100 µM (inactive) and the GI50 (MOLT-4) was 51.3 µM (inactive). For the same compound, the GI50 (NCI-H522) was 97.1 µM (inactive), the GI50 (Malme-3M) was > 100 µM (inactive) and the GI50 (NCI/ADR-RES) was > 100 µM (inactive). For the same compound, the GI50 (HCC 2998) was > 100 µM (inactive), the GI50 (HCT-15) was over 100 µM and the GI50 (IGROV-1) was > 100 µM (inactive). For the same compound, the GI50 (COLO 205) was > 100 µM (inactive), the GI50 (OVCAR-3) was > 100 µM (inactive) and the GI50 (HCT-116) was > 100 µM (inactive). The GI50 (A549) was > 100 µM (inactive) and the GI50 (MDA-MB-231) was > 100 µM (inactive).

— ChEMBL document CHEMBL1201862, “PubChem BioAssay data set” (2004)
